The results in this text go back to article PMC9854728, “Synthesis and Antioxidant Properties of Novel 1,2,3-Triazole-Containing Nitrones” (Antioxidants, 2022).

The IC50 is the concentration that gives 50% inhibition. Broadly, the melting point is the temperature, or range, at which the solid turns liquid. As usually defined, the inhibition is the percentage by which the read-out fell short of the control. A low value points to a response near the control.

Series [1] is described as follows: ABTS radical cation decolorization assay. The settings on record: tested at 100 µM, 1 min, 734 nm; no = no activity. The procedure: (§1) The in vitro antioxidant assays for nitrones 8 and 9 were performed concentrations of 100 µM (from a stock solution 10 mM in 0.1% DMSO in deionized water). Several dilutions were made when the determination of IC50 values was needed. All the determinations were made, at least in triplicate, and the standard deviation of absorbance was less than 10% of the mean. The nitrones were diluted under sonification in the appropriate buffer in several dilutions (Table 1).
ABTS stock solution in water (7 mM) was mixed with potassium persulfate (2.45 mM) and left in the dark at rt for 12–16 h before use, followed by the production of the ABTS radical cation (ABTS^+·). The assay was performed as described previously. The results were recorded after 1 min of the mixing solutions at 734 nm. Trolox was used as a positive control.

The target of series [2] is T1, soybean lipoxygenase (LOX) (Glycine max, UniProt P08170).
T1 construct: purchased Aldrich Chemical Co. (Milwaukee, WI, USA)
T1 sequence (P08170 1-839): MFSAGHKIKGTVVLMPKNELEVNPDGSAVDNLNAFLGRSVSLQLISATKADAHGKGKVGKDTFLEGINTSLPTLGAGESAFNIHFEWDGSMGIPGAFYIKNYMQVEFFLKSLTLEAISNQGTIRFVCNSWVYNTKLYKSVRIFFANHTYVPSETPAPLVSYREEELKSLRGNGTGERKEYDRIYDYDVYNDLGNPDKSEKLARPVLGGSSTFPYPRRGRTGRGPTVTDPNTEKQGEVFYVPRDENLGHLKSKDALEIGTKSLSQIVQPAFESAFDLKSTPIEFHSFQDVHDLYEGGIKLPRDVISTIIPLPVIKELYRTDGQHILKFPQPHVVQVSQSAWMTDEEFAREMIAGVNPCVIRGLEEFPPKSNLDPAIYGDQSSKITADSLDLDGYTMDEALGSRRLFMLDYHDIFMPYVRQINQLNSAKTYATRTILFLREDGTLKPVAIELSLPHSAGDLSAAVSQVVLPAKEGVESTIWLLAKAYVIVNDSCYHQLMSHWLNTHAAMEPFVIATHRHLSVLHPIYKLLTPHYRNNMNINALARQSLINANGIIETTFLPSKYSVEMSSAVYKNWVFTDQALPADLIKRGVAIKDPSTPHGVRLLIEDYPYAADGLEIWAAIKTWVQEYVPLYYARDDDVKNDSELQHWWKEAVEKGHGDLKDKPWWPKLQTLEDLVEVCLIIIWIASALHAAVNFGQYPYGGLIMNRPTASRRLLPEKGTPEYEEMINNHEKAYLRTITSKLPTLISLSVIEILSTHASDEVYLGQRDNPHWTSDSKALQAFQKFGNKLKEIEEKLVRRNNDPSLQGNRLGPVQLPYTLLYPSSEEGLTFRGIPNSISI
In words: In vitro inhibition of soybean lipoxygenase (LOX). The series is classed as biochemical. The note with it: for inhibition at 100 µM / LOX Inhibition (%): tested at 100 µM, no = no activity under the experimental conditions; for LOX Inhibition (%): 100 µM. How it is done:
The in vitro antioxidant assays for nitrones 8 and 9 were performed concentrations of 100 µM (from a stock solution 10 mM in 0.1% DMSO in deionized water). Several dilutions were made when the determination of IC50 values was needed. […] The nitrones were diluted under sonification in the appropriate buffer in several dilutions (Table 1).
The in vitro study was evaluated as reported previously. Compounds 8a–f or 9a–f (10 μL) were incubated at rt with sodium linoleate (0.1 mM) and 200 μL of enzyme solution (1/9 × 10^–4 w/v in saline). Tris buffer pH 9 was inserted. The conversion of sodium linoleate to 13-hydroperoxylinoleic acid was recorded at 234 nm. […] Several dilutions of compounds were used for the determination of IC50 values. Blank determination served as the negative control.

A short description of series [3]: Inhibition of linoleic acid peroxidation (ILP) induced by AAPH. The note with it: tested at 100 µM, 37 °C. How it is done: as §1
The production of conjugated diene hydroperoxide by the oxidation of linoleate sodium 16 mM linoleate sodium (10 µL) in an aqueous solution is monitored at 234 nm. AAPH 40 mM (50 µL) is used as a free radical initiator at 37 °C under air conditions, followed by the tested nitrones. This assay can be used to follow oxidative changes by recording the absorbance values at 234 nm, using Trolox as a reference compound. The experimental procedure follows our previously reported protocol.

A short description of series [4]: Competition with DMSO for hydroxyl radicals. The note with it: tested at 100 µM, Fe3+/ascorbic acid system, 37 °C, 30 min; no = no activity. The procedure:
as §1
The hydroxyl radicals, produced by the Fe^3+/ascorbic acid system, were detected by the determination of formaldehyde produced from the oxidation of DMSO [8]. Solutions of EDTA (0.1 mM), Fe^3+ (167 μM), DMSO (33 mM) in phosphate buffer (50 mM, pH 7.4), as well as the tested compounds (10 μL final concentration 100 μM) and ascorbic acid (10 mM) were mixed in test tubes and incubated at 37 °C for 30 min. The reaction was stopped by adding CCl3COOH (17% w/v), and the % competition activity of the nitrones 8 and 9 with DMSO for hydroxyl radicals was calculated. Trolox was used as a positive control.

[5] abbreviates: soybean LOX, sodium linoleate 0.1 mM, Tris buffer pH 9, read-out: LOX Inhibition IC50.

The structures appear in SMILES notation. Read-outs that look alike come from different tables or passages of the source.

`C[N+]([O-])=CCn1cc(-c2ccccc2)nn1` [Nitrone 8a, N-(2-(4-Phenyl-1H-1,2,3-Triazol-1-yl)Ethylidene)Methanamine Oxide] came in with a melting point of 97 to 98 °C. Moreover, the “ABTS+• (%)” value in series [1] is given as 14%. Moreover, in series [2] (setting [5]), the IC50 worked out at 37.5 µM. Further, in series [3], the “ILP (%)” value worked out at 48.4%. Besides, in series [4], the “Scavenging Activity for HO• (%)” value is 93%.
The molecule `C[N+]([O-])=CCn1cc(-c2ccccc2F)nn1` [Nitrone 8b, N-(2-(4-(2-Fluorophenyl)-1H-1,2,3-Triazol-1-yl)Ethylidene)Methanamine Oxide] gave a melting point of 125 to 126 °C. In addition, in series [1], the “ABTS+• (%)” value came to 13%. In addition, testing at 100 µM in series [2] gave an inhibition of 24%. Further, the “ILP (%)” value in series [3] is recorded as 2%. The “Scavenging Activity for HO• (%)” value in series [4] is 61%.
On to `C[N+]([O-])=CCn1cc(-c2cccc(F)c2)nn1` [Nitrone 8c, N-(2-(4-(3-Fluorophenyl)-1H-1,2,3-Triazol-1-yl)Ethylidene)Methanamine Oxide], for which the melting point is 158 to 160 °C. The “ABTS+• (%)” value in series [1] is listed as “no”. Further, at 100 µM the inhibition in series [2] was 40%. The “ILP (%)” value in series [3] was determined as 65%. Also, in series [4], the “Scavenging Activity for HO• (%)” value is 59%.
Turning to `C[N+]([O-])=CCn1cc(-c2ccc(F)cc2)nn1` [Nitrone 8d, N-(2-(4-(4-Fluorophenyl)-1H-1,2,3-Triazol-1-yl)Ethylidene)Methanamine Oxide], the melting point lay within 165 to 167 °C. Also, the “ABTS+• (%)” value in series [1] came out at 5.3%. Also, in series [2], the “LOX Inhibition (%)” value is “loses its activity and no”. The “ILP (%)” value in series [3] was found to be 54%. Besides, in series [4], the “Scavenging Activity for HO• (%)” value is 80%.
For `C[N+]([O-])=CCn1cc(-c2ccc(F)cc2F)nn1` [Nitrone 8e, N-(2-(4-(2,4-Difluorophenyl)-1H-1,2,3-Triazol-1-yl)Ethylidene)Methanamine Oxide], the melting point is 122 to 123 °C. Further, the “ABTS+• (%)” value in series [1] is listed as “no”. The molecule further returned an IC50 in series [2] of 87.5 µM. Also, the “ILP (%)” value in series [3] came to 87%. The “Scavenging Activity for HO• (%)” value in series [4] was determined as 76%.
In turn, `Cc1cc(-c2cn(CC=[N+](C)[O-])nn2)ccc1F` [Nitrone 8f, N-(2-(4-(4-Fluoro-3-Methylphenyl)-1H-1,2,3-Triazol-1-yl)Ethylidene)Methanamine Oxide] returned a melting point of 171 to 173 °C. For the same molecule, the “ABTS+• (%)” value in series [1] stood at 34.3%. This molecule also returned an inhibition at 100 µM in series [2] of 44%. The “ILP (%)” value in series [3] is reported as 41%. In series [4], the “Scavenging Activity for HO• (%)” value turned out to be 91.5%.
For `CC(C)(C)[N+]([O-])=CCn1cc(-c2ccccc2)nn1` [Nitrone 9a, 2-Methyl-N-(2-(4-Phenyl-1H-1,2,3-Triazol-1-yl)Ethylidene)Propan-2-Amine Oxide], in that order: 91 to 93 °C, 4%, 44%, 74.5% and 76%.
On to `CC(C)(C)[N+]([O-])=CCn1cc(-c2ccccc2F)nn1` [Nitrone 9b, N-(2-(4-(2-Fluorophenyl)-1H-1,2,3-Triazol-1-yl)Ethylidene)-2-Methylpropan-2-Amine Oxide], for which the melting point lay within 72 to 73 °C. Moreover, the “ABTS+• (%)” value in series [1] is “no”. Also, the 50% inhibitory concentration (IC50) in series [2] (setting [5]) is 40 µM. Besides, the “ILP (%)” value in series [3] was found to be 73%. Further, the “Scavenging Activity for HO• (%)” value in series [4] was determined as 76%.
`CC(C)(C)[N+]([O-])=CCn1cc(-c2cccc(F)c2)nn1` [Nitrone 9c, N-(2-(4-(3-Fluorophenyl)-1H-1,2,3-Triazol-1-yl)Ethylidene)-2-Methylpropan-2-Amine Oxide] displayed a melting point of 94 to 95 °C. For the same molecule, the “ABTS+• (%)” value in series [1] is listed as “no”. Besides, the “LOX Inhibition (%)” value in series [2] was “no inhibition and no”. Further, the “Scavenging Activity for HO• (%)” value in series [4] is on record as 89%.
On to `CC(C)(C)[N+]([O-])=CCn1cc(-c2ccc(F)cc2)nn1` [Nitrone 9d, N-(2-(4-(4-Fluorophenyl)-1H-1,2,3-Triazol-1-yl)Ethylidene)-2-Methylpropan-2-Amine Oxide], for which the melting point lay in the range of 128 to 131 °C. The “ABTS+• (%)” value in series [1] is “no”. For the same molecule, in series [2] (setting [5]), the IC50 was found to be 100 µM. The “Scavenging Activity for HO• (%)” value in series [4] stood at 99%.
For `CC(C)(C)[N+]([O-])=CCn1cc(-c2ccc(F)cc2F)nn1` [Nitrone 9e, N-(2-(4-(2,4-Difluorophenyl)-1H-1,2,3-Triazol-1-yl)Ethylidene)-2-Methylpropan-2-Amine Oxide], the melting point lay in the range of 122 to 123 °C. Also, in series [1], the “ABTS+• (%)” value is “no”. In addition, the “LOX Inhibition IC50” value in series [2] (soybean LOX, sodium linoleate 0.1 mM, Tris buffer pH 9) is on record as “equipotent to the 9d”. Besides, the IC50 in series [2] (setting [5]) was found to be 100 µM. Moreover, the “ILP (%)” value in series [3] turned out to be 100%. Moreover, the “Scavenging Activity for HO• (%)” value in series [4] is listed as 100%.
With `Cc1cc(-c2cn(CC=[N+]([O-])C(C)(C)C)nn2)ccc1F` [Nitrone 9f, N-(2-(4-(4-Fluoro-3-Methylphenyl)-1H-1,2,3-Triazol-1-yl)Ethylidene)-2-Methylpropan-2-Amine Oxide], the melting point lay in the range of 104 to 107 °C. Moreover, in series [1], the “ABTS+• (%)” value is reported as 16%. Besides, the “LOX inhibition, fold less potent than NDGA” value in series [2] (IC50 27 μM vs NDGA […]) is 60 fold. Also, the IC50 in series [2] (setting [5]) was 27 µM. For the same molecule, the “ILP (%)” value in series [3] came out at 87%. The “Scavenging Activity for HO• (%)” value in series [4] was 99.9%.
For the molecule `CC(C)(C)/[N+]([O-])=C/c1ccccc1` [PBN, (Z)-N-tert-butyl-1-phenylmethanimine oxide, reference compound], the “ABTS+• (%)” value in series [1] is listed as 5%. Moreover, the “ILP (%)” value in series [3] was 11%. For the same molecule, the “Scavenging Activity for HO• (%)” value in series [4] is on record as “no”.
As to `Cc1c(C)c2c(c(C)c1O)CCC(C)(C(=O)O)O2` (stereo not drawn) [Trolox, reference compound], in series [1], the “ABTS+• (%)” value is 91%. In addition, the “ILP (%)” value in series [3] turned out to be 93%. Moreover, in series [4], the “Scavenging Activity for HO• (%)” value is given as 88%.
